Active and inactive are the calls of the source. The calls are words filed in the database; no cut-off is given here.
Key:
[1] = AUC (0 to infinity) in Sprague-Dawley rat at 10 mg/kg, po measured for 3 to 1440 mins by HPLC analysis; assay type: ADME, organism-based; settings: in vivo
[2] = Half life in Sprague-Dawley rat at 10 mg/kg, po measured for 3 to 1440 mins by HPLC analysis; assay type: ADME, organism-based; settings: in vivo, time 3-1440 min
[3] = Acute toxicity in 12 hr fasted ICR mouse assessed as effect on kidney at 2000 mg/kg, po measured after 7 days by hematoxylin and eosin staining based histopathological analysis; assay type: organism-based; settings: in vivo, 168 h, time 7 day
CDK8/Cyclin C = CDK8/Cyclin C (Homo sapiens, UniProt P49336); assay: Inhibition of recombinant full length His tagged human CDK8/Cyclin C expressed in Baculovirus incubated for 60 mins in presence of ATP by ADP-Glo kinase assay
[4] = target: Cyclin-dependent kinase 8 (Homo sapiens) (UniProt P49336); assay: Inhibition of CDK8 in human HCT-116 cells assessed as STAT-1 phosphorylation at Ser727 at 1 to 4 uM treated for 24 hrs by western blot analysis; assay type: cell-based; settings: dose 1-4 µM
BMDC = assay: Inhibition of ERK phosphorylation in R848-stimulated mouse BMDC cells at 1 to 4 uM treated for 2 hrs followed by R848 stimulation for 12 hrs by western blot analysis; assay type: cell-based; settings: dose 1-4 µM, time 14.0 hrs
[5] = Acute toxicity in 12 hr fasted ICR mouse assessed as effect on liver at 2000 mg/kg, po measured after 7 days by hematoxylin and eosin staining based histopathological analysis; assay type: organism-based; settings: in vivo, 168 h, time 7 day
[6] = MRT in Sprague-Dawley rat at 5 mg/kg, iv measured for 3 to 1440 mins by HPLC analysis; assay type: ADME, organism-based; settings: in vivo, time 3-1440 min
[7] = Bioavailability in Sprague-Dawley rat at 10 mg/kg, po measured for 3 to 1440 mins by HPLC analysis; assay type: ADME, organism-based; settings: in vivo, time 3-1440 min
Mus musculus [8] = assay: Anti-inflammatory activity in C57BL/6 mouse model of inflammatory bowel disease assessed as reversal of DSS-induced TLR7 expression in colon tissue at 5 to 20 mg/kg, po measured after 10 days by western blot analysis; assay type: functional, organism-based; settings: dose 5-20 mg/kg, time 10.0 day
[9] = target: Cyclin-dependent kinase 8 (Homo sapiens) (UniProt P49336); assay: Binding affinity to CDK8 in human HCT-116 cells assessed as thermal stability at 49 degC treated for 4 hrs followed by compound washout by CETSA assay; assay type: cell-based; settings: dose 0.5-10 µM, DDE = dose-dependent effect
Mus musculus [10] = assay: Anti-inflammatory activity in DSS-induced C57BL/6 mouse model of inflammatory bowel disease assessed as increase in JAK1 phosphorylation in colon tissue at 5 to 20 mg/kg, po measured after 10 days by western blot analysis; assay type: functional, organism-based; settings: dose 5-20 mg/kg, time 10.0 day
Mus musculus [11] = assay: Anti-inflammatory activity in C57BL/6 mouse model of inflammatory bowel disease assessed as increase in DSS-induced IL-10 levels in serum administered orally daily measured after 10 days by ELISA method; assay type: functional, organism-based; settings: dose 5-20 mg/kg, route po, time 10.0 day, DDE = dose-dependent effect
[12] = Acute toxicity in 12 hr fasted ICR mouse assessed as effect on lung at 2000 mg/kg, po measured after 7 days by hematoxylin and eosin staining based histopathological analysis; assay type: organism-based; settings: in vivo, 168 h, time 7 day
[13] = target: MAP kinase p38 (Mus musculus) (UniProt P47811+O08911+Q9WUI1+Q9Z1B7); assay: Inhibition of P38 phosphorylation in R848-stimulated mouse BMDC cells at 1 to 4 uM treated for 2 hrs followed by R848 stimulation for 12 hrs by western blot analysis; assay type: cell-based; settings: dose 1-4 µM, time 14.0 hrs
[14] = Cmax in Sprague-Dawley rat at 5 mg/kg, iv measured for 3 to 1440 mins by HPLC analysis; assay type: ADME, organism-based; settings: in vivo
Mus musculus [15] = assay: Anti-inflammatory activity in C57BL/6 mouse model of inflammatory bowel disease assessed as decrease in DSS-induced TNF-alpha levels in colon tissue at 5 to 20 mg/kg, po daily measured after 10 days by ELISA method; assay type: functional, organism-based; settings: dose 5-20 mg/kg, time 10.0 day

Sequence of Cyclin-dependent kinase 8 (Homo sapiens) (P49336 whole entry): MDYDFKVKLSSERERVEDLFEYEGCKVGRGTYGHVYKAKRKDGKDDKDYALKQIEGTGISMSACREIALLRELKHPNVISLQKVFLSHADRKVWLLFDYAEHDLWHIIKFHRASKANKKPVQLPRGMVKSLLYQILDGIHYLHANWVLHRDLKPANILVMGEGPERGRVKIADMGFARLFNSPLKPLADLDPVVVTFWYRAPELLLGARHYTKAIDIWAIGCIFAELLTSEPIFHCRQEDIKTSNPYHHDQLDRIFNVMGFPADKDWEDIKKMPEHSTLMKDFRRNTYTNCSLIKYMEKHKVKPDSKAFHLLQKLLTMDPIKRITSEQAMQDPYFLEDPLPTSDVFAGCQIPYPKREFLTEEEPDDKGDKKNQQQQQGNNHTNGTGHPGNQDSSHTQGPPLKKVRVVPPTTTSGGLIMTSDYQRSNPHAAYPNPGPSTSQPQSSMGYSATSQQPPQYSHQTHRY
Sequence of CDK8/Cyclin C (P49336 whole entry): as above
Sequence of CDK8/Cyclin C (P24863 whole entry, further chain): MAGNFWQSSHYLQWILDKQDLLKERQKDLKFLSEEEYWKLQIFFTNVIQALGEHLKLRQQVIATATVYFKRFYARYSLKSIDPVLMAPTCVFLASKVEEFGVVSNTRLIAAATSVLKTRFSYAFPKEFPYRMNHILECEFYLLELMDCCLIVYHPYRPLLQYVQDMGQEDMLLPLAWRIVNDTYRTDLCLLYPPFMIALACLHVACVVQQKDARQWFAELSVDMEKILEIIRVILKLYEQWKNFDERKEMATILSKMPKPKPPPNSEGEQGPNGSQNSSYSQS

Q: With `CCc1ccccc1NC(=O)c1cncc(-c2ccc(C(=O)N3CCNCC3)cc2)c1` as the compound, how does the AUC(0-inf) [1] read?
A: Its AUC(0-inf) is 520 ng·h/mL.

Q: And the half-life [2]?
A: The half-life was 131 min.

Q: And the Activity [3]?
A: The Activity was “Non-Toxic”.

Q: What about the IC50 (CDK8/Cyclin C) of the same compound?
A: The IC50 was 56 nM.

Q: What about the inhibition [4] of the same compound?
A: The inhibition was “Active”.

Q: What about the inhibition (BMDC) of the same compound?
A: The inhibition was “Active”.

Q: And the Activity [5]?
A: The Activity was “Non-Toxic”.

Q: And the MRT [6]?
A: Its MRT is 1.97 h.

Q: And the bioavailability [7]?
A: Its bioavailability is 29.3%.

Q: What about the Activity (Mus musculus [8]) of the same compound?
A: Its Activity is “Active”.

Q: And the Activity [9]?
A: Its Activity is “Dde”.

Q: What about the Activity (Mus musculus [10]) of the same compound?
A: The Activity was “Active”.

Q: What about the Activity (Mus musculus [11]) of the same compound?
A: Its Activity is “Dde”.

Q: What about the Activity [12] of the same compound?
A: Its Activity is “Non-Toxic”.

Q: What about the inhibition [13] of the same compound?
A: The inhibition was “Active”.

Q: And the Cmax [14]?
A: Its Cmax is 528 ng/mL.

Q: And the Activity (Mus musculus [15])?
A: Its Activity is “Active”.

Source: ChEMBL document CHEMBL5154907, “Discovery and Anti-Inflammatory Activity Evaluation of a Novel CDK8 Inhibitor through Upregulation of IL-10 for the Treatment of Inflammatory Bowel Disease In Vivo” (J Med Chem, 2022)
